pIC50: −log10 of the molar value.
What was measured:
P. falciparum HB3 strain = assay: Antiplasmodial activity against P. falciparum HB3 strain in culture; format: cell-based, Plasmodium falciparum; details: for pIC50 / inhibition at 10 µM: Plasmodium falciparum; for pIC50: HB3 strain (chloroquine-sensitive), read-out: IC50; for inhibition at 10 µM: HB3 strain, read-out: GI (growth inhibition percentage); for SI (selectivity index): Vero CC50 versus HB3 IC50
Description: (§1) In vitro activity of BZ. All BZ derivatives were tested at 10 μM against the HB3 strain of Pf, and for those compounds with a percentage of growth inhibition (% GI) higher than 50%, the IC50 values were determined. In addition, their cytotoxicity on epithelial Vero cell cultures was evaluated to calculate their selectivity indexes (SI), Table 1. An index of 10 or above is expected for a lead compound.
(§2) The chloroquine-sensitive […] and chloroquine-resistance 7G8 strain […] of P. falciparum were used throughout. Infected erythrocytes were kept in culture using the protocol established by Haynes et al.[44], basically utilizing human O^+ erythrocytes kept in an RPMI medium supplemented with glutamine and 10% human serum incubated in an atmosphere of 90% N2, 5% O2 and 5% CO2.

[1] = system: plasma membrane of parasite culture / erythrocytes; assay: Propidium iodide incorporation assay (membrane integrity); format: cell-based, Plasmodium falciparum; details: 3 h incubation, fluorometry
Description: The integrity of the plasma membrane under the action of certain antiplasmodial compounds was assessed through the use of two methodologies. First, the absorption of propidium iodide, to which intact membranes are impermeable, was measured. Second, the presence of heme in the culture media, which indicates a leakage of the contents of the erythrocyte or its complete lysis (hemolysis), was analyzed.
Figure 3 Membrane integrity tests. BZ 1, 5, 16, 26 and 33 were tested in triplicates in two independent experiments. (a) Incorporation of propidium iodide (PI) was analyzed through fluorometry after 3 h incubation with the compounds. (b) Hemolysis was measured by light absorbance 24 h after exposure to the compounds. One-way ANOVA with Turkey´s comparison was used for analysis of significance. ****p < 0.001.
Manufacturer’s instructions (BD PharmingenTM) were followed. Briefly, 200 µL of parasite culture at 2% parasitemia or uninfected erythrocytes, at 2% hematocrit, were incubated with each compound for 3 h at 37 °C. Untreated samples were cultured in the same plate. After incubation, 2 µL of Propidium Iodide was added and incubated for 15 min at RT while protected from light. Fluorescence was read in a fluorometer at excitation and emission wavelengths of 485/20 and 645/40 nm, respectively.

[2] = system: 7G8 P. falciparum parasites; assay: Antiplasmodial activity against chloroquine-resistant 7G8 P. falciparum; format: cell-based, Plasmodium falciparum; details: for pIC50: Plasmodium falciparum, 7G8 strain (chloroquine-resistant), read-out: 7G8 Pf IC50; for SI (selectivity index): Vero CC50 versus 7G8 IC50
Source text: (§3) The mechanism used by Pf to prevent intoxication with free heme once hemoglobin is degraded is to form hemozoin crystals that capture heme. Mefloquine and other common antimalarials interfere with this pathway, resulting in the death of the parasite.
as §2

[3] = system: P. falciparum-infected cultures; assay: Intracellular reactive oxygen species (ROS) production in P. falciparum; format: cell-based, Plasmodium falciparum; details: 1 µM; 0.5, 6 and 9 h
Description: Also, the intracellular production of oxygen reactive species (ROS) was monitored for the same antiplasmodial compounds. The level of ROS production was compared between the samples and that of the untreated parasites. […] This would point to the conformation of such molecules targeting a specific molecule or process of the parasite.  Figure 4 Effect of selected benzimidazole derivatives on ROS production. Five potent compounds were incubated with P. falciparum-infected cultures and the production of reactive oxygen species was measured through fluorometry at 0.5, 6 and 9 h after their addition at 1 µM. As positive control, a sample containing hydrogen peroxide at 200 μM was added. Samples were measured in triplicates. One-way ANOVA with Turkey´s comparison was used to measure significance with respect to the untreated control at each different time point. n = 2. (a) BZ 1, (b) BZ 5, (c) BZ 16, (d) BZ 26 and (e) BZ 33. *p < 0.05, **p < 0.01, ***p < 0.005. Intracellular ROS formation was measured in a fluorimeter using the CM-H2DCFDA reactive dye from Molecular Probes® (Eugene OR, USA). Hydrogen peroxide was used as a positive control at a final concentration of 200 µM. The level of ROS present was inferred through the amount of oxidized DCF[45].

[4] = system: mitochondria of P. falciparum parasites; assay: Mitochondrial membrane potential measurement; format: cell-based, Plasmodium falciparum; details: 1 µM
Description: Changes in mitochondrial membrane potential, another common hallmark of programed cell death, were analyzed in the samples that had promising activities toward P. falciparum cultures. The results of adding 1 µM of each compound can be seen in Fig. 5. […] This could probably be explained by the presence of the unsubstituted picolinamide fragment, therefore more polar and less soluble in the membrane, making it harder or slower to permeate into the erythrocyte and then into the parasite, with respect to the other three.  Figure 5 Changes to mitochondrial membrane potential caused by antiplasmodial compounds. Fluorometry was used to measure the effects on the mitochondria of P. falciparum parasites caused by treatment with compounds that show activity against their growth in culture. A membrane disruptor (CCCP) was added as a positive control and untreated cultures were used as the negative one. All compounds were tested at 1 µM in triplicates, n = 3. (a) BZ 1, (b) BZ 5, (c) BZ 16, (d) BZ 26 and (e) BZ 33. *p < 0.05, **p < 0.01, ***p < 0.005. The membrane potential was measured in a flow cytometer after staining P. falciparum cultures with the DiOC6(3) dye at 10 nM (Thermo Fisher, Waltham, MA, USA). Samples were incubated for 45 min at 37 °C in the dark. Following incubation, cells were washed and resuspended using 200 µL of phosphate-buffered saline (PBS) and analyzed immediately after. The mitochondrial membrane disrupter, CCCP (50 µM), incubated for 1 h, was used as a positive control. The fluorescence intensity of stained cells was calculated using FCS Express 4 (De Novo Software, Glendale, CA, USA). As negative control, uninfected red blood cells were used and their signal was subtracted from that of the infected red blood cells.

[5] = Cytotoxicity on epithelial Vero cell cultures; format: cell-based; details: African green monkey, epithelial Vero cells
Description: as §1

[6] = system: hemozoin biocrystallization in P. falciparum; assay: Hemozoin biocrystallization / beta-hemozoin formation; format: cell-based, Plasmodium falciparum; details: Pf cultures, 36 h
Source text: as §3

pIC50 (P. falciparum HB3 strain) | Compound | inhibition at 10 µM (P. falciparum HB3 strain) | Membrane integrity: incorporation of propidium iodide [1] | pIC50 [2] | SI (selectivity index) [2] | Intracellular ROS production versus untreated parasites [3] | Change in mitochondrial membrane potential versus untreated control [4] | CC50 [5] | SI (selectivity index) (P. falciparum HB3 strain) | Interference with hemozoin biocrystallization [6]
5.62 | Cc1ccc(C(=O)Nc2nc3cc(Cl)ccc3[nH]2)nc1 [BZ 16, N-(5-Chloro-1H-benzimidazol-2-yl)-5-methylpicolinamide] | 85.6% | some permeation in the membrane, although not significant | 5.59 | 2.7 | no significant difference at any point |  | 7200 nM | 3.0 | small level of disruption
5.48 | COc1ccc2[nH]c(NC(=O)c3ccc(C)cn3)nc2c1 [BZ 26, N-(5-Methoxy-1H-benzimidazol-2-yl)-5-methylpicolinamide] | 93.5% | some permeation in the membrane, although not significant |  |  | no significant difference at any point | shows an effect from t = 6 h onward | 11100 nM | 3.4 | 
6.07 | Cc1cc2nc(NC(=O)c3ccccn3)[nH]c2cc1C [BZ 33, N-(5,6-Dimethyl-1H-benzimidazol-2-yl)picolinamide] | 100% | best in keeping the membrane well preserved |  |  | early significant decrease in the natural level of ROS | do not show a difference with the untreated control up to t = 6 h | 13200 nM |  | 

Compound | pIC50 (P. falciparum HB3 strain) | inhibition at 10 µM (P. falciparum HB3 strain) | Membrane integrity: incorporation of propidium iodide [1] | pIC50 [2] | SI (selectivity index) [2] | Intracellular ROS production versus untreated parasites [3] | Change in mitochondrial membrane potential versus untreated control [4] | CC50 [5] | SI (selectivity index) (P. falciparum HB3 strain) | Interference with hemozoin biocrystallization [6]
Cc1ccc2[nH]c(NC(=O)c3ccccn3)nc2c1 [BZ 1, N-(5-methyl-1H-benzimidazol-2-yl)picolinamide] | 6.01 | 93.5% | best in keeping the membrane well preserved | 6.02 | 15.6 | early significant decrease in the natural level of ROS | do not show a difference with the untreated control up to t = 6 h | 14800 nM |  | 

From publication PMC9822940, “Antiplasmodial activity, structure–activity relationship and studies on the action of novel benzimidazole derivatives” (Scientific Reports, 2023)
